In patent US20250228882A1, “ORALLY-BIOAVAILABLE NUCLEOSIDE ANALOGS” (Venatorx Pharmaceuticals, Inc., priority 2022, published 2025):

Assay: Bidirectional Caco-2 permeability assay
Format: in vitro ADME
Details: human, Caco-2
Procedure: The bidirectional permeability of compounds across the Caco-2 cell monolayer was assessed. The Caco-2 model is a widely used in vitro model for small intestinal absorption and potential for efflux. Cell culture. Caco-2 cells were grown in DMEM supplemented with 10% fetal bovine serum (FBS), 1% Penicillin-Streptomycin and 1% MEMNEAA. The cells were incubated at 37° C., 5% CO2/95% air and saturated humidity. After reaching 80-90% confluency, the cells were gently detached with trypsin. Cells at passage 39 were seeded on the 24-well BD insert system at the density of 8×10^4 cells/cm^2 and cultured for 19 days with medium changed every 2-3 days. Measure the transepithelial electrical resistance (TEER) value of each well. The wells can be used only when their TEER values are greater than 600 Ohms/cm^2.
Transport assay. After removing the cell culture medium from the 24-well insert plate, the cells were rinsed with warm transport buffer. Appropriate dosing and receiving solutions were applied to the donor and receiver chambers to initiate the transport assay in apical to basolateral (A to B) or basolateral to apical (B to A) directions (500 and 1300 μL for apical and basolateral wells, respectively). Duplicate wells in each direction were used for the test compound and control compound. The plate was incubated in CO2 incubator at 37° C., with 5% CO2/95% air and saturated humidity without shaking. The sample after 10-minute incubation was used as the To sample, and the sample after 90-minute incubation was used as the T90 sample. To and T90 samples were collected from the donor and receiver side of each well at the designed timepoint, mixed with the transport buffer and acetonitrile/MeOH (1:1, v/v) and the internal standard for LC/MS/MS analysis. All samples were vortexed and centrifuged at 4000 rpm at 4° C. for 15 minutes, diluted with pure water and stored at 4° C. before bioanalysis by LC/MS/MS.
Sample analysis. The concentrations of test compounds and control compounds in Caco-2 cells were quantitatively determined by LC/MS/MS method after protein precipitation.
Calculations. The apparent permeability (Papp, cm/s), efflux ratio (ER) and recovery parameters were calculated for Caco-2 drug transport assay using the following equations: […]
where VR is the solution volume in the receiver chamber (0.4 mL on the apical side, 1.2 mL on the basolateral side); Area is the surface area for the insert membrane, i.e., 0.3 cm^2 for the area of the monolayer; Time is incubation time, expressed in seconds, i. e., 5400 s (90 min) for the current experiment; Co is the initial concentration of test compound or peak area ratio of control compounds in the donor chamber (M); VD is the volume in the donor chambers (0.4 mL on the apical side, 1.2 mL on the basolateral side); CD and CR are the final concentrations of test compounds or peak area ratio of control compounds in donor and receiver chambers, respectively.
Compounds with Papp<1.0 are classified as low permeability, Papp between 1-10 are classified as medium permeability, and Papp>10 are classified as high permeability. An efflux ratio (ER)>2 indicates the compounds are potential substrates for intestinal cell efflux transporters.

Question: What does the source list for `CCCCCC(=O)Nc1ncnn2c([C@]3(C#N)O[C@H](COC(=O)CC4CCCC4)[C@@H](OC(=O)[C@@H](N)C(C)(C)C)[C@H]3O)ccc12` [Compound 55, (2R,3S,4R,5R)-5-cyano-2-((2-cyclopentylacetoxy)methyl)-5-(4-hexanamidopyrrolo[2,1-f][1,2,4]triazin-7-yl)-4-hydroxytetrahydrofuran-3-yl (S)-2-amino-3,3-dimethylbutanoate]?
Answer: Papp A→B at 90 min: 27.4 nm/s; Papp B→A at 90 min: 36.3 nm/s; efflux ratio at 90 min: 1.33

Question: Which Papp A→B at 90 min does the source give for `CCC(CC)C(=O)Nc1ncnn2c([C@]3(C#N)O[C@H](COC(=O)CC4CCCC4)[C@@H](OC(=O)[C@@H](N)C(C)(C)C)[C@H]3O)ccc12` [Compound 56, (2R,3S,4R,5R)-5-cyano-2-((2-cyclopentylacetoxy)methyl)-5-(4-(2-ethylbutanamido)pyrrolo[2,1-f][1,2,4]triazin-7-yl)-4-hydroxytetrahydrofuran-3-yl (S)-2-amino-3,3-dimethylbutanoate] here?
Answer: Its Papp A→B at 90 min is 76.1 nm/s.

Question: And the Papp B→A at 90 min?
Answer: Its Papp B→A at 90 min is 75.7 nm/s.

Question: And the efflux ratio at 90 min?
Answer: The efflux ratio at 90 min was 0.99.

Question: For `COC(C)(C)C(=O)Nc1ncnn2c([C@]3(C#N)O[C@H](COC(=O)CC4CCCC4)[C@@H](OC(=O)[C@@H](N)C(C)(C)C)[C@H]3O)ccc12` [Compound 57, (2R,3S,4R,5R)-5-cyano-2-((2-cyclopentylacetoxy)methyl)-4-hydroxy-5-(4-(2-methoxy-2-methylpropanamido)pyrrolo[2,1-f][1,2,4]triazin-7-yl)tetrahydrofuran-3-yl (S)-2-amino-3,3-dimethylbutanoate], which Papp A→B at 90 min is on record?
Answer: The Papp A→B at 90 min was 164 nm/s.

Question: And the Papp B→A at 90 min?
Answer: The Papp B→A at 90 min was 100 nm/s.

Question: And the efflux ratio at 90 min?
Answer: The efflux ratio at 90 min was 0.61.

Question: What does the source list for `CCCCC(=O)Nc1ncnn2c([C@]3(C#N)O[C@H](COC(=O)CC4CCCCCC4)[C@@H](OC(=O)[C@@H](N)C(C)(C)C)[C@H]3O)ccc12` [Compound 61, (2R,3S,4R,5R)-5-cyano-2-((2-cycloheptylacetoxy)methyl)-4-hydroxy-5-(4-pentanamidopyrrolo[2,1-f][1,2,4]triazin-7-yl)tetrahydrofuran-3-yl (S)-2-amino-3,3-dimethylbutanoate]?
Answer: Papp A→B at 90 min: 10.7 nm/s; Papp B→A at 90 min: 6.5 nm/s; efflux ratio at 90 min: 0.6

Question: With `CCC(CC)C(=O)Nc1ncnn2c([C@]3(C#N)O[C@H](COC(=O)CC4CCCCCC4)[C@@H](OC(=O)[C@@H](N)C(C)(C)C)[C@H]3O)ccc12` [Compound 62, (2R,3S,4R,5R)-5-cyano-2-((2-cycloheptylacetoxy)methyl)-5-(4-(2-ethylbutanamido)pyrrolo[2,1-f][1,2,4]triazin-7-yl)-4-hydroxytetrahydrofuran-3-yl (S)-2-amino-3,3-dimethylbutanoate] as the molecule, how does the Papp A→B at 90 min read?
Answer: Its Papp A→B at 90 min is 14 nm/s.

Question: And the Papp B→A at 90 min?
Answer: The Papp B→A at 90 min was 8.9 nm/s.

Question: And the efflux ratio at 90 min?
Answer: The efflux ratio at 90 min was 0.64.

Question: With `COC(C)(C)C(=O)Nc1ncnn2c([C@]3(C#N)O[C@H](COC(=O)CC4CCCCCC4)[C@@H](OC(=O)[C@@H](N)C(C)(C)C)[C@H]3O)ccc12` [Compound 63, (2R,3S,4R,5R)-5-cyano-2-((2-cycloheptylacetoxy)methyl)-4-hydroxy-5-(4-(2-methoxy-2-methylpropanamido)pyrrolo[2,1-f][1,2,4]triazin-7-yl)tetrahydrofuran-3-yl (S)-2-amino-3,3-dimethylbutanoate] as the molecule, how does the Papp A→B at 90 min read?
Answer: Its Papp A→B at 90 min is 40.1 nm/s.

Question: And the Papp B→A at 90 min?
Answer: Its Papp B→A at 90 min is 27.9 nm/s.

Question: What about the efflux ratio at 90 min of the same molecule?
Answer: Its efflux ratio at 90 min is 0.7.

Question: For `CCCCOC(=O)Nc1ncnn2c([C@]3(C#N)O[C@H](COC(=O)CC4CCCCCC4)[C@@H](OC(=O)[C@@H](N)C(C)(C)C)[C@H]3O)ccc12` [Compound 65, (2R,3S,4R,5R)-5-(4-((butoxycarbonyl)amino)pyrrolo[2,1-f][1,2,4]triazin-7-yl)-5-cyano-2-((2-cycloheptylacetoxy)methyl)-4-hydroxytetrahydrofuran-3-yl (S)-2-amino-3,3-dimethylbutanoate], which Papp A→B at 90 min is on record?
Answer: Its Papp A→B at 90 min is 7.9 nm/s.

Question: And the Papp B→A at 90 min?
Answer: Its Papp B→A at 90 min is 5 nm/s.

Question: What about the efflux ratio at 90 min of the same molecule?
Answer: The efflux ratio at 90 min was 0.62.

Question: For `CCOC(C)(C)C(=O)Nc1ncnn2c([C@]3(C#N)O[C@H](COC(=O)CC4CCCC4)[C@@H](OC(=O)[C@@H](N)C(C)(C)C)[C@H]3O)ccc12` [Compound 66, (2R,3S,4R,5R)-5-cyano-2-((2-cyclopentylacetoxy)methyl)-5-(4-(2-ethoxy-2-methylpropanamido)pyrrolo[2,1-f][1,2,4]triazin-7-yl)-4-hydroxytetrahydrofuran-3-yl (S)-2-amino-3,3-dimethylbutanoate], which Papp A→B at 90 min is on record?
Answer: The Papp A→B at 90 min was 51 nm/s.

Question: And the Papp B→A at 90 min?
Answer: The Papp B→A at 90 min was 57.9 nm/s.

Question: And the efflux ratio at 90 min?
Answer: The efflux ratio at 90 min was 1.13.

Question: Which Papp A→B at 90 min does the source give for `CCOC(C)(C)C(=O)Nc1ncnn2c([C@]3(C#N)O[C@H](COC(=O)CC4CCCCCC4)[C@@H](OC(=O)[C@@H](N)C(C)(C)C)[C@H]3O)ccc12` [Compound 67, (2R,3S,4R,5R)-5-cyano-2-((2-cycloheptylacetoxy)methyl)-5-(4-(2-ethoxy-2-methylpropanamido)pyrrolo[2,1-f][1,2,4]triazin-7-yl)-4-hydroxytetrahydrofuran-3-yl (S)-2-amino-3,3-dimethylbutanoate] here?
Answer: Its Papp A→B at 90 min is 47.8 nm/s.

Question: What about the Papp B→A at 90 min of the same molecule?
Answer: The Papp B→A at 90 min was 25.4 nm/s.

Question: What about the efflux ratio at 90 min of the same molecule?
Answer: The efflux ratio at 90 min was 0.53.

Question: What does the source list for `COC(C)(C)C(=O)Nc1ncnn2c([C@]3(C#N)O[C@H](COC(=O)CC4CCCCC4)[C@@H](OC(=O)[C@H](N)C(C)(C)C)[C@H]3O)ccc12` [Compound 68, (2R,3S,4R,5R)-5-cyano-2-((2-cyclohexylacetoxy)methyl)-4-hydroxy-5-(4-(2-methoxy-2-methylpropanamido)pyrrolo[2,1-f][1,2,4]triazin-7-yl)tetrahydrofuran-3-yl (R)-2-amino-3,3-dimethylbutanoate]?
Answer: Papp A→B at 90 min: 32.2 nm/s; Papp B→A at 90 min: 40.4 nm/s; efflux ratio at 90 min: 1.25

Question: Which Papp A→B at 90 min does the source give for `CCC(CC)C(=O)Nc1ncnn2c([C@]3(C#N)O[C@H](COC(=O)CC4CCCCC4)[C@@H](OC(=O)[C@H](N)C(C)(C)C)[C@H]3O)ccc12` [Compound 69, (2R,3S,4R,5R)-5-cyano-2-((2-cyclohexylacetoxy)methyl)-5-(4-(2-ethylbutanamido)pyrrolo[2,1-f][1,2,4]triazin-7-yl)-4-hydroxytetrahydrofuran-3-yl (R)-2-amino-3,3-dimethylbutanoate] here?
Answer: The Papp A→B at 90 min was 31.9 nm/s.

Question: And the Papp B→A at 90 min?
Answer: The Papp B→A at 90 min was 43.8 nm/s.

Question: And the efflux ratio at 90 min?
Answer: Its efflux ratio at 90 min is 1.37.

Question: For `COC(C)(C)C(=O)Nc1ncnn2c([C@]3(C#N)O[C@H](COC(=O)CC4CCCCCC4)[C@@H](OC(=O)[C@H](N)C(C)(C)C)[C@H]3O)ccc12` [Compound 70, (2R,3S,4R,5R)-5-cyano-2-((2-cycloheptylacetoxy)methyl)-4-hydroxy-5-(4-(2-methoxy-2-methylpropanamido)pyrrolo[2,1-f][1,2,4]triazin-7-yl)tetrahydrofuran-3-yl (R)-2-amino-3,3-dimethylbutanoate], which Papp A→B at 90 min is on record?
Answer: Its Papp A→B at 90 min is 21.3 nm/s.

Question: And the Papp B→A at 90 min?
Answer: The Papp B→A at 90 min was 22 nm/s.

Question: And the efflux ratio at 90 min?
Answer: Its efflux ratio at 90 min is 1.03.

Question: Which Papp A→B at 90 min does the source give for `CCCCOC(C)(C)C(=O)Nc1ncnn2c([C@]3(C#N)O[C@H](COC(=O)CC4CCCC4)[C@@H](OC(=O)[C@@H](N)C(C)(C)C)[C@H]3O)ccc12` [Compound 71, (2R,3S,4R,5R)-5-(4-(2-butoxy-2-methylpropanamido)pyrrolo[2,1-f][1,2,4]triazin-7-yl)-5-cyano-2-((2-cyclopentylacetoxy)methyl)-4-hydroxytetrahydrofuran-3-yl(S)-2-amino-3,3-dimethylbutanoate] here?
Answer: Its Papp A→B at 90 min is 6.7 nm/s.

Question: And the Papp B→A at 90 min?
Answer: Its Papp B→A at 90 min is 81.8 nm/s.

Question: And the efflux ratio at 90 min?
Answer: The efflux ratio at 90 min was 12.1.

Question: For `CCCCOC(C)(C)C(=O)Nc1ncnn2c([C@]3(C#N)O[C@H](COC(=O)CC4CCCCCC4)[C@@H](OC(=O)[C@@H](N)C(C)(C)C)[C@H]3O)ccc12` [Compound 72, (2R,3S,4R,5R)-5-(4-(2-butoxy-2-methylpropanamido)pyrrolo[2,1-f][1,2,4]triazin-7-yl)-5-cyano-2-((2-cycloheptylacetoxy)methyl)-4-hydroxytetrahydrofuran-3-yl(S)-2-amino-3,3-dimethylbutanoate], which Papp A→B at 90 min is on record?
Answer: Its Papp A→B at 90 min is 0.9 nm/s.

Question: And the Papp B→A at 90 min?
Answer: Its Papp B→A at 90 min is 76 nm/s.

Question: What about the efflux ratio at 90 min of the same molecule?
Answer: Its efflux ratio at 90 min is 88.8.

Question: For `CCCCOC(C)(C)C(=O)Nc1ncnn2c([C@]3(C#N)O[C@H](COC(=O)CC4CCCCC4)[C@@H](OC(=O)[C@H](N)C(C)(C)C)[C@H]3O)ccc12` [Compound 73, (2R,3S,4R,5R)-5-(4-(2-butoxy-2-methylpropanamido)pyrrolo[2,1-f][1,2,4]triazin-7-yl)-5-cyano-2-((2-cyclohexylacetoxy)methyl)-4-hydroxytetrahydrofuran-3-yl (R)-2-amino-3,3-dimethylbutanoate], which Papp A→B at 90 min is on record?
Answer: The Papp A→B at 90 min was 2.4 nm/s.

Question: What about the Papp B→A at 90 min of the same molecule?
Answer: The Papp B→A at 90 min was 5.3 nm/s.

Question: What about the efflux ratio at 90 min of the same molecule?
Answer: Its efflux ratio at 90 min is 2.23.
